Read-outs that look alike come from different tables or passages of the source.

Assay [1] concerns MHCC97H cells. Description: IC50 values by cell proliferation assay (WST-1). Format: cell-based, human. The protocol:
(§1) MHCC97H and MHCC97L (highly metastatic hepatocellular carcinoma cell line, derived from humans)
Cells (MHCC97H, MHCC97L, and HepG2.2.15) were cultured for 24 hours in 2% FBS and then were trypsinized, resuspended in 2% FBS and seeded in a rat collagen coated 96-well plate at a density of 10,000 cells/100 μl/well, a day before the experiment and cultured at 37° C. in 5% CO2. The cells were treated the next day with milciclib, sorafenib, regorafenib, sunitinib, and lenvatinib, individually or in combination in DMEM/F12+2% FBS+for 72 hours prior to the addition of WST-1 reagent. About 100 μL media was added to control well. […] To determine cell proliferation by the colorimetric test, 10 μL of WST-1 reagent (Sigma Aldrich, St Louis, Mo.) was added in 100 μL cell culture media and incubated for 2 hours in 5% CO2 at 37° C. At the end of incubation period, the plate was placed on a plate shaker for 1 minute and was monitored using a spectrophotometer at an optical density of 450 nm with a reference wavelength of 600 nm using Tecan F200 and iControl software. IC50 values were determined using GraphPad Prism (GraphPad Software, La Jolla, Calif.). Each experiment was performed in duplicate and repeated 2 times.

For assay [2], the system named is MHCC97L cells. Nature of the assay: IC50 values by cell proliferation assay (WST-1). Format: cell-based. The note with it: Homo sapiens, individual inhibitor, 72 hours.
Description: (§2) See Shailubhai, K et al. “Atiprimod is an inhibitor of cancer cell proliferation and angiogenesis.” J Exp Ther Oncol. 2004; 4: 267-279; and Choudhari et al. “Deactivation of Akt and STAT3 signaling promotes apoptosis, inhibits proliferation, and enhances the sensitivity of hepatocellular carcinoma cells to an anticancer agent, atiprimod” Molecular Cancer Therapeutics. 2007; 6: 112-121. References are incorporated herein in their entireties.
as §1
(§3) Cells (MHCC97H, MHCC97L, and HepG2.2.15) were cultured for 24 hours in 2% FBS and then were trypsinized, resuspended in 2% FBS and seeded in a rat collagen coated 96-well plate at a density of 10,000 cells/100 μl/well, a day before the experiment and cultured at 37° C. in 5% CO2. The cells were treated the next day with milciclib, sorafenib, regorafenib, sunitinib, and lenvatinib, individually or in combination in DMEM/F12+2% FBS+for 72 hours prior to the addition of WST-1 reagent. About 100 μL media was added to control well. After cells had been cultured for 72 hours with different drug concentrations, cells were washed 3 times with sterile 1× Phosphate buffered saline (PBS). To determine cell proliferation by the colorimetric test, 10 μL of WST-1 reagent (Sigma Aldrich, St Louis, Mo.) was added in 100 μL cell culture media and incubated for 2 hours in 5% CO2 at 37° C. At the end of incubation period, the plate was placed on a plate shaker for 1 minute and was monitored using a spectrophotometer at an optical density of 450 nm with a reference wavelength of 600 nm using Tecan F200 and iControl software. IC50 values were determined using GraphPad Prism (GraphPad Software, La Jolla, Calif.). Each experiment was performed in duplicate and repeated 2 times.
(In general: Tetrazolium assays rely on reduction of a dye to a coloured formazan, in cell work by metabolically active cells.)

The test system of another assay is HepG2.2.15 cells. Description: IC50 values by cell proliferation assay (WST-1). Format: cell-based. Particulars: Homo sapiens, read-out: HepG2.2.15 IC50.
Description: as §2
HepG2.2.15 cells are derived from the human hepatoblastoma cell line HepG2.
as §3

The test system of assay [3] is MHCC97H cells. Nature of the assay: EMT transwell invasion assay. The format is cell-based, human. Particulars: in combination with milciclib, vs individual treatment, P<0.005. The protocol:
(§4) EMT (Epithelial to Mesenchymal Transition) induction employing kit from R&D systems (Cat # CCM017)
(§5) For transwell invasion assay HCC cells were seeded in the top chamber in 6 well transwell plates (Sigma-Aldrich, St. Louis, Mo.) at a density of 100,000 cells/500 μL/well in standard culture media containing 100× StemXVivo® EMT Inducing Media Supplement (R&D systems, Minneapolis, Minn.) and was incubated overnight at 37° C. in humidified CO2 incubator. Next day, EMT inducing media with or without the test articles was added and incubation was continued for 10 days with media changes every 3 days. On the 10th day, the number of cells migrated to the lower chamber was determined using Bio-Rad (Hercules, Calif.) automatic cell counter. Values obtained were expressed as a percentage of invasion and the cell counts of control cells were considered 100%.
(§6) The invasive potential of cancer cells is dependent on losing epithelial characteristics and acquiring a migratory mesenchymal property referred to as Epithelial to Mesenchymal Transition (EMT).

Assay [4] concerns MHCC97L cells. Nature of the assay: EMT transwell invasion assay. The format is cell-based, human. Particulars: in combination with milciclib, vs individual treatment, P<0.005. The protocol:
as §4, §5, §6

Assay [5] relates to MHCC97H human liver cells. Description: Orthotopic tumor induction in athymic nude mice. Format: in vivo. Particulars: oral, once daily day 12 to 47; milciclib 30 mg/kg/day, sorafenib 20 mg/kg/day; vs vehicle. As for the experimental part:
Mouse experiments were performed in accordance with the guidelines approved by the Institutional Animal Care and use committee of Washington Biotechnology Inc (Baltimore, Md.) where the studies were conducted. (FIG. 66) Test agents were dissolved in chremophor/ethanol (1:1) to make a 5× stock solution and diluted in water when used. MHCC97H human liver cells (5×106) in PBS were mixed with 20% Matrigel and then inoculated orthotopically into the right flank of female Balb/c nude mice. Seven days after cell inoculation, the mice were randomly allocated to either the treatment group (n=12) or the control group (n=12) based on the levels of AFP. The daily animal inspection was conducted for general appearance and tumor growth. Milciclib (30 mg/Kg), sorafenib (20 mg/Kg), milciclib+sorafenib or the corresponding vehicle was given orally to individual mice once daily from day 12 until day 47. After completion of the treatment at day 48, animals were euthanized and blood, liver tissues and tumor were collected for gene expression and mechanistic assays. Liver tumors developed 100% of animals challenged with orthotopic MHCC97H injection.

For a further assay, the system named is alpha-fetoprotein (AFP). Nature of the assay: Serum AFP in orthotopic HCC mouse model. Particulars: milciclib 30 mg/kg, sorafenib 20 mg/kg, oral, vs vehicle. Format: in vivo, mice. The protocol: MHCC97H cells were seeded at a density of 500,000 cells/2 mL/well on a 6 well culture plate and incubated overnight at 37° C. in a humidified CO2 incubator. Cells were then treated with 1.3 μM milciclib or vehicle in DMEM/F12+2% FBS for 72 hours. Subsequently, cells were lysed in RIPA buffer, the supernatant was collected and used to perform ELISA assay as per the manufacturer's instructions. In orthotopic HCC mouse model, levels of serum marker alpha-fetoprotein (AFP) were determined on day 0, 6, 12, 18, 24, 30, 36, 42 and 48 using High Range AFP kit as per manufacturer's instructions.
Mouse experiments were performed in accordance with the guidelines approved by the Institutional Animal Care and use committee of Washington Biotechnology Inc (Baltimore, Md.) where the studies were conducted. (FIG. 66) Test agents were dissolved in chremophor/ethanol (1:1) to make a 5× stock solution and diluted in water when used. MHCC97H human liver cells (5×106) in PBS were mixed with 20% Matrigel and then inoculated orthotopically into the right flank of female Balb/c nude mice. Seven days after cell inoculation, the mice were randomly allocated to either the treatment group (n=12) or the control group (n=12) based on the levels of AFP. The daily animal inspection was conducted for general appearance and tumor growth. […]

A further assay deals with miR-221 and miR-222. Nature of the assay: miRNA isolation and expression analysis of tumor tissues. The format is in vivo. The note with it: tumor tissues from orally treated mice, vs vehicle. The protocol:
miRNA from athymic nude mice following treatment with vehicle, milciclib, sorafenib, or milciclib+sorafenib was isolated from Total RNA using the TaqMan Advanced miRNA cDNA Synthesis Kit (Thermo Fisher Scientific, Rockford, Ill.) according to the manufacturer's instructions. miRNA-221 and miR-222 quantifications were performed in duplicates using TaqMan Advanced miRNA Assay (Thermo Fisher Scientific, Rockford, Ill.) with a sample dilution of 1:10. The PCR mixture was incubated at 95° C. for 20 seconds, followed by 40 cycles of 95° C. for 3 seconds and 60° C. for 30 seconds. Results were normalized to hsa-miR-192-5p as reference miRNA and the relative gene expression calculated as 2−ΔCT was expressed as fold increase over control samples.
Tumor tissues from mice treated with vehicle, sorafenib, milciclib, milciclib+sorafenib and normal liver tissues from naïve untreated mice were collected and levels of miR-221 and miR-222 were determined. The levels of both of miR-221 and miR-222 were elevated in tumors from vehicle treated mice.

The mark [6] stands for this setting: Homo sapiens, MHCC97H, individual inhibitor, 72 hours, WST-1, read-out: MHCC97H IC50.
Setting [7] is: Homo sapiens, MHCC97H cells, in combination with fixed 1.3 μM milciclib, read-out: IC50 (μM) KINASE INHIBITORS + 1.3 μM MILCICLIB
Setting [8] is: Homo sapiens, MHCC97H cells, inhibitor alone (synergy studies), read-out: IC50 (μM) OF KINASE INHIBITORS
Where [9] appears, read: MHCC97H cells, in combination with fixed 1.3 μM milciclib, read-out: IC50 (μM) KINASE INHIBITORS + 1.3 μM MILCICLIB
The mark [10] stands for this setting: HepG2.2.15, individual inhibitor, 72 hours, WST-1.
The mark [11] stands for this setting: Homo sapiens, MHCC97H, 72 h, MHCC97H cells, inhibitor alone (synergy studies), read-out: IC50 (μM) OF KINASE INHIBITORS

The IC50 is the point on the concentration scale where inhibition reaches its midpoint. Consider `COc1cc2nccc(Oc3ccc(NC(=O)NC4CC4)c(Cl)c3)c2cc1C(N)=O` [LENVATINIB, lenvatinib], for which the IC50 was 0.28 µM with MHCC97H cells [1] (setting [6]); 0.12 µM with MHCC97H cells [1] (setting [7]); 0.28 µM in the assay on MHCC97H cells [1] (setting [8]); 0.14 µM with MHCC97L cells [2]; 0.24 µM in the assay on HepG2.2.15 cells (HepG2.2.15, 72 h). For the same compound, the invasion potential result in the assay with MHCC97H cells [3] and with MHCC97L cells [4] was “reduced the invasion potential to a greater extent” throughout.

For `CC(=O)c1c(C)c2cnc(Nc3ccc(N4CCNCC4)cn3)nc2n(C2CCCC2)c1=O` [PALBOCICLIB, palbociclib], the IC50 in the assay with MHCC97H cells [1] (Homo sapiens, 72 h, MHCC97H cells, inhibitor alone (synergy studies), read-out: IC50 (μM) OF KINASE INHIBITORS) was determined as 14.5 µM; in the assay with MHCC97H cells [1] (setting [6]), 14.5 µM; in the assay on MHCC97H cells [1] (setting [9]), 6.7 µM; in the assay on MHCC97L cells [2] it was 8.2 µM; in the assay with HepG2.2.15 cells (HepG2.2.15, 72 h) it was 11.1 µM.

Take `CNC(=O)c1cc(Oc2ccc(NC(=O)Nc3ccc(Cl)c(C(F)(F)F)c3)c(F)c2)ccn1` [REGORAFENIB, regorafenib]: the half-maximal inhibitory concentration (IC50) in the assay with MHCC97H cells [1] (setting [6]) stood at 4.7 µM; in the assay with MHCC97H cells [1] (setting [7]), 1.9 µM; in the assay on MHCC97H cells [1] (setting [8]), 4.7 µM; in the assay with MHCC97L cells [2], 3.5 µM; with HepG2.2.15 cells (setting [10]) it was 3.94 µM. Moreover, the invasion potential entry with MHCC97H cells [3] and with MHCC97L cells [4] was “reduced the invasion potential to a greater extent” each time.

Turning to `CNC(=O)c1cc(Oc2ccc(NC(=O)Nc3ccc(Cl)c(C(F)(F)F)c3)cc2)ccn1` [SORAFENIB, sorafenib], the IC50 in the assay on MHCC97H cells [1] (setting [11]) came to 12 µM; in the assay on MHCC97H cells [1] (Homo sapiens, MHCC97H, MHCC97H cells, in combination with fixed 1.3 μM milciclib, read-out: IC50 (μM) KINASE INHIBITORS + 1.3 μM MILCICLIB), 6.7 µM; in the assay on MHCC97H cells [1] (Homo sapiens, MHCC97H, MHCC97H cells, inhibitor alone (synergy studies), read-out: IC50 (μM) OF KINASE INHIBITORS) it was 12 µM; in the assay with MHCC97H cells [1] (setting [6]) it was 12 µM; in the assay with MHCC97L cells [2] it was 8.8 µM; in the assay on HepG2.2.15 cells (setting [10]), 6.48 µM. The invasion potential result in the assay with MHCC97H cells [3] and with MHCC97L cells [4] was “reduced the invasion potential to a greater extent” throughout. The reducing tumor growth in assay [5] was 21%. Further, in the assay with alpha-fetoprotein (AFP), the “serum AFP levels” value is given as “Significantly lower”. In addition, the “expression of miR-221 and miR-222” value in the assay with miR-221 and miR-222 was “modestly reduced”.

`CCN(CC)CCNC(=O)c1c(C)[nH]c(/C=C2\C(=O)Nc3ccc(F)cc32)c1C` [SUNITINIB, sunitinib]: the IC50 in the assay on MHCC97H cells [1] (setting [11]) stood at 30.4 µM; in the assay on MHCC97H cells [1] (Homo sapiens, MHCC97H, 72 h, individual inhibitor, 72 hours, WST-1, read-out: MHCC97H IC50), 30.5 µM; in the assay with MHCC97H cells [1] (setting [9]), 17.2 µM; with MHCC97L cells [2], 8.2 µM; with HepG2.2.15 cells (setting [10]) it was 25.4 µM.

Source of the values: patent US10758541B2, “Formulations of milciclib and therapeutic combinations of the same for use in the treatment of cancer” (Tiziana Life Sciences PLC, priority 2017, dated 2020).
